Reference: US20220096516A1, “OLIGONUCLEOTIDE MOLECULE AND APPLICATION THEREOF IN TUMOR THERAPY” (Ractigen Therapeutics, priority 2019, published 2022)
d = 2'-deoxy (DNA); r = 2'-OH (RNA)

Tested on: LHPP gene
Test: High-throughput screening of saRNAs targeting LHPP promoter: LHPP mRNA by one-step RT-qPCR in Huh7 cells
Assay type: cell-based, human
Settings: 10 nM saRNA, 72 hours, relative to control (Mock)
How it was run: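 LHPP transcript level relative to mock, normalised to the geometric mean of the HPRT1 and TBP reference genes, measured by one-step RT-qPCR on crude lysates. Huh7 cells had been RNAiMax-transfected with each saRNA at 10 nM for 72 h.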

| Substance | Fold of changes in relative LHPP mRNA expression level [fold] | Fold of changes in relative LHPP mRNA expression level (log2) |
| --- | --- | --- |
| RAG7-776: saRNA duplex; sense UAGCAUCGAGUGGUAUUUUTT (SEQ ID NO: 56), antisense AAAAUACCACUCGAUGCUATT (SEQ ID NO: 220) (sugars from the 5' end r19 d2, backbone not given here) | 1.35 | 0.44 |
| RAG7-778: saRNA duplex; sense UGUAGCAUCGAGUGGUAUUTT (SEQ ID NO: 70), antisense AAUACCACUCGAUGCUACATT (SEQ ID NO: 234) (sugars from the 5' end r19 d2, backbone not given here) | 1.29 | 0.37 |
| RAG7-780: saRNA duplex; sense AAUGUAGCAUCGAGUGGUATT (SEQ ID NO: 142), antisense UACCACUCGAUGCUACAUUTT (SEQ ID NO: 306) (sugars from the 5' end r19 d2, backbone not given here) | 1.14 | 0.19 |
| RAG7-821: saRNA duplex; sense ACUCCUCCCUUUUAAUAUCTT (SEQ ID NO: 89), antisense GAUAUUAAAAGGGAGGAGUTT (SEQ ID NO: 253) (sugars from the 5' end r19 d2, backbone not given here) | 1.25 | 0.32 |
| RAG7-826: saRNA duplex; sense AGGAAACUCCUCCCUUUUATT (SEQ ID NO: 157), antisense UAAAAGGGAGGAGUUUCCUTT (SEQ ID NO: 321) (sugars from the 5' end r19 d2, backbone not given here) | 1.11 | 0.15 |
| RAG7-828: saRNA duplex; sense UGAGGAAACUCCUCCCUUUTT (SEQ ID NO: 108), antisense AAAGGGAGGAGUUUCCUCATT (SEQ ID NO: 272) (sugars from the 5' end r19 d2, backbone not given here) | 1.20 | 0.26 |
| RAG7-829: saRNA duplex; sense UUGAGGAAACUCCUCCCUUTT (SEQ ID NO: 29), antisense AAGGGAGGAGUUUCCUCAATT (SEQ ID NO: 193) (sugars from the 5' end r19 d2, backbone not given here) | 1.50 | 0.59 |
| RAG7-830: saRNA duplex; sense AUUGAGGAAACUCCUCCCUTT (SEQ ID NO: 36), antisense AGGGAGGAGUUUCCUCAAUTT (SEQ ID NO: 200) (sugars from the 5' end r19 d2, backbone not given here) | 1.45 | 0.54 |
| RAG7-832: saRNA duplex; sense CCAUUGAGGAAACUCCUCCTT (SEQ ID NO: 139), antisense GGAGGAGUUUCCUCAAUGGTT (SEQ ID NO: 303) (sugars from the 5' end r19 d2, backbone not given here) | 1.14 | 0.19 |
| RAG7-833: saRNA duplex; sense GCCAUUGAGGAAACUCCUCTT (SEQ ID NO: 138), antisense GAGGAGUUUCCUCAAUGGCTT (SEQ ID NO: 302) (sugars from the 5' end r19 d2, backbone not given here) | 1.14 | 0.20 |
| RAG7-837: saRNA duplex; sense AGGGGCCAUUGAGGAAACUTT (SEQ ID NO: 109), antisense AGUUUCCUCAAUGGCCCCUTT (SEQ ID NO: 273) (sugars from the 5' end r19 d2, backbone not given here) | 1.20 | 0.26 |
| RAG7-839: saRNA duplex; sense CGAGGGGCCAUUGAGGAAATT (SEQ ID NO: 158), antisense UUUCCUCAAUGGCCCCUCGTT (SEQ ID NO: 322) (sugars from the 5' end r19 d2, backbone not given here) | 1.11 | 0.15 |
| RAG7-844: saRNA duplex; sense GGUUCCGAGGGGCCAUUGATT (SEQ ID NO: 129), antisense UCAAUGGCCCCUCGGAACCTT (SEQ ID NO: 293) (sugars from the 5' end r19 d2, backbone not given here) | 1.17 | 0.22 |
| RAG7-846: saRNA duplex; sense AAGGUUCCGAGGGGCCAUUTT (SEQ ID NO: 11), antisense AAUGGCCCCUCGGAACCUUTT (SEQ ID NO: 175) (sugars from the 5' end r19 d2, backbone not given here) | 1.68 | 0.75 |
| RAG7-847: saRNA duplex; sense AAAGGUUCCGAGGGGCCAUTT (SEQ ID NO: 34), antisense AUGGCCCCUCGGAACCUUUTT (SEQ ID NO: 198) (sugars from the 5' end r19 d2, backbone not given here) | 1.48 | 0.56 |
| RAG7-848: saRNA duplex; sense GAAAGGUUCCGAGGGGCCATT (SEQ ID NO: 87), antisense UGGCCCCUCGGAACCUUUCTT (SEQ ID NO: 251) (sugars from the 5' end r19 d2, backbone not given here) | 1.25 | 0.32 |
| RAG7-850: saRNA duplex; sense UUGAAAGGUUCCGAGGGGCTT (SEQ ID NO: 46), antisense GCCCCUCGGAACCUUUCAATT (SEQ ID NO: 210) (sugars from the 5' end r19 d2, backbone not given here) | 1.39 | 0.47 |
| RAG7-851: saRNA duplex; sense CUUGAAAGGUUCCGAGGGGTT (SEQ ID NO: 163), antisense CCCCUCGGAACCUUUCAAGTT (SEQ ID NO: 327) (sugars from the 5' end r19 d2, backbone not given here) | 1.10 | 0.14 |
| RAG7-852: saRNA duplex; sense ACUUGAAAGGUUCCGAGGGTT (SEQ ID NO: 128), antisense CCCUCGGAACCUUUCAAGUTT (SEQ ID NO: 292) (sugars from the 5' end r19 d2, backbone not given here) | 1.17 | 0.22 |
| RAG7-853: saRNA duplex; sense AACUUGAAAGGUUCCGAGGTT (SEQ ID NO: 146), antisense CCUCGGAACCUUUCAAGUUTT (SEQ ID NO: 310) (sugars from the 5' end r19 d2, backbone not given here) | 1.14 | 0.18 |
| RAG7-879: saRNA duplex; sense GUAAAGUGUUCUCGUUUCUTT (SEQ ID NO: 40), antisense AGAAACGAGAACACUUUACTT (SEQ ID NO: 204) (sugars from the 5' end r19 d2, backbone not given here) | 1.44 | 0.53 |
| RAG7-883: saRNA duplex; sense AGAAGUAAAGUGUUCUCGUTT (SEQ ID NO: 161), antisense ACGAGAACACUUUACUUCUTT (SEQ ID NO: 325) (sugars from the 5' end r19 d2, backbone not given here) | 1.11 | 0.14 |
| RAG7-884: saRNA duplex; sense CAGAAGUAAAGUGUUCUCGTT (SEQ ID NO: 101), antisense CGAGAACACUUUACUUCUGTT (SEQ ID NO: 265) (sugars from the 5' end r19 d2, backbone not given here) | 1.22 | 0.28 |
| RAG7-885: saRNA duplex; sense CCAGAAGUAAAGUGUUCUCTT (SEQ ID NO: 147), antisense GAGAACACUUUACUUCUGGTT (SEQ ID NO: 311) (sugars from the 5' end r19 d2, backbone not given here) | 1.14 | 0.18 |
| RAG7-886: saRNA duplex; sense ACCAGAAGUAAAGUGUUCUTT (SEQ ID NO: 25), antisense AGAACACUUUACUUCUGGUTT (SEQ ID NO: 189) (sugars from the 5' end r19 d2, backbone not given here) | 1.52 | 0.60 |
| RAG7-887: saRNA duplex; sense GACCAGAAGUAAAGUGUUCTT (SEQ ID NO: 51), antisense GAACACUUUACUUCUGGUCTT (SEQ ID NO: 215) (sugars from the 5' end r19 d2, backbone not given here) | 1.37 | 0.46 |
| RAG7-889: saRNA duplex; sense UGGACCAGAAGUAAAGUGUTT (SEQ ID NO: 115), antisense ACACUUUACUUCUGGUCCATT (SEQ ID NO: 279) (sugars from the 5' end r19 d2, backbone not given here) | 1.19 | 0.25 |
